Test results: US4478845A, “Antiinflammatory and/or analgesic imidazoimidazoles” (E. I. Du Pont de Nemours and Company, priority 1983, dated 1984)
Where two headings read alike, the source gives them in different places.

Tests used:
[1] = tested on: adjuvant-induced arthritis in rats (paw volume); experiment: Established Adjuvant-Induced Arthritis in Rats; assay type: in vivo, Charles River Lewis male rats; conditions: for ED50: Rattus norvegicus, read-out: Adjuvant Arthritic ED50; for percent reduction in paw volume at the indicated dose: at 45 (mg/kg)
[2] = tested on: phenylquinone-induced writhing in mice; experiment: Phenylquinone Writhing Test; assay type: in vivo, female white mice; conditions: Mus musculus, read-out: Phenylquinone Writhing (PQW) ED50
Protocol: A test compound suspended in 1% methylcellulose was given orally to fasted (17-21 hours) female white mice, 5-20 animals per double blind test. Aqueous (0.01% phenyl-p-benzoquinone) phenylquinone, 0.20 ml per mouse, was injected intraperitoneally 6 minutes before observations were begun.

[3] = oral, fasted female mice, effective analgesic dose for 50% of the mice
[4] = oral, rats, 7 daily doses, ED50% decrease from control paw volume (uninjected, left hind paw)

SMILES	ED50 ([1]; po)	ED50 [2, 3]	percent reduction in paw volume at the indicated dose ([1]; oral, rats, 7 daily doses)	ED50 [1, 4]	ED50 ([2]; po)
CC(=O)Oc1ccccc1C(=O)O [Aspirin]	305 mg/kg				
COc1ccc(-c2nc3n(c2-c2ccc(OC)cc2)C(C)=NC3(C(F)(F)F)C(F)(F)F)cc1 [Example 2, 2,3-bis(4-Methoxyphenyl)-5-methyl-7,7-bis(trifluoromethyl)imidazo[1,5-a]imidazole]		21 mg/kg	31%		
CC1=NC(C(F)(F)F)(C(F)(F)F)c2nc(-c3ccc(C)cc3)c(-c3ccc(C)cc3)n21 [Example 3, 2,3-bis(4-Methylphenyl)-5-methyl-7,7-bis(trifluoromethyl)imidazo[1,5-a]imidazole]		> 108 mg/kg	44%		
CCCCC1C(=O)N(c2ccccc2)N(c2ccccc2)C1=O [Phenylbutazone]		80 mg/kg		10 mg/kg	
CC(C)Cc1ccc(C(C)C(=O)O)cc1 (stereo not shown) [Ibuprofen]		10 mg/kg		100 mg/kg	
COc1ccc2c(c1)c(CC(=O)O)c(C)n2C(=O)c1ccc(Cl)cc1 [Indomethacin]	0.3 mg/kg				0.35 mg/kg
CC1=NC(C(F)(F)F)(C(F)(F)F)c2nc(-c3ccc(F)cc3)c(-c3ccc(F)cc3)n21 [Example 1, 2,3-bis(4-Fluorophenyl)-5-methyl-7,7-bis(trifluoromethyl)imidazo[1,5-a]imidazole]				6.5 mg/kg	135 mg/kg
